In experiment [1] the target is T1, LFA-1/ICAM-1 interactions (Homo sapiens, UniProt P20701).
T1 construct: host or cells: Jurkat or Hut 78 cells
In words: Jurkat or Hut 78 cell adhesion to ICAM-1. It counts as cell-based. As for the experimental part: Jurkat or Hut 78 cells obtained from ATCC and cultured in RPMI-1640 supplemented with 10% FCS, L-glutamine, non essential amino acids and 0.05 mM 2-mercaptoethanol, are centrifuged, washed once in PBS, and resuspended at 0.5×10^6 cells/ml in binding buffer (1.5% BSA, 5 mM glucose, 2 mM MgCl2, […] MnCl2 in TBS, pH 7) containing 5 μg/ml BCECF-AM (Molecular Probes). The cells are incubated at 37° C. for 30-45 min. in the dark. Then the cells are centrifuged and resuspended in binding buffer by pipetting and immediately used for experiment.
Flat well microtiter plates (NUNC Maxisorp) are coated with 1 μg/ml goat anti-mouse Cκ (Bioreba, South.Biot.) in carbonate buffer (15 mM Na2CO3, 35 mM NaHCO3, pH8.0) 2 hours at 37° C. The plates are emptied and blocked with 1.5% BSA and 0.5% Tween-20 in carbonate buffer for 90 min. at 37° C. The plates are emptied and washed once in TBS containing, 1.5% BSA. Baculovirus derived ICAM-1 mouse Cκ fusion protein (100 ng/ml in TBS/1.5% BSA) is added to the wells. The plates are incubated for 90 min. at 37° C. After three washes with TBS/1.5% BSA, the compound to be tested is diluted in binding buffer (as above but free from BSA and glucose) and added to the wells. Then 100 000 Jurkat or Hut 78 cells/well are added and allowed to adhere for 30 min. at 37° C. Adherent cells are separated from non-adherent cells by 2-4 washes using binding buffer. Adherent cells are quantified with a fluorescence ELISA reader CytofluorII with the filters set at 485 nm and 530 nm emission.

The test system of experiment [2] is thioglycollate induced neutrophil migration. In words: Murine thioglycollate induced peritonitis. It counts as in vivo. Conditions: s.c., mice. As for the experimental part: Thioglycollate is injected i.p. to mice and immediately thereafter the compound to be tested is given s.c. The mice are killed after 4 hours, the peritoneal cavity lavaged and the total number of neutrophils in the lavage fluid is determined.
In this assay, the compounds of the invention, e.g. mevinolins inhibit thioglycollate induced neutrophil migration when administered s.c. at a dose of from 0.001-50 mg/kg.

Experiment [3] has as its target T2, LFA-1 I-domain (Homo sapiens, UniProt P20701).
T2 construct: amino acid residues 128 to 309 of the α-chain of LFA-1 which corresponds to the I-domain
T2 sequence (P20701 153-334): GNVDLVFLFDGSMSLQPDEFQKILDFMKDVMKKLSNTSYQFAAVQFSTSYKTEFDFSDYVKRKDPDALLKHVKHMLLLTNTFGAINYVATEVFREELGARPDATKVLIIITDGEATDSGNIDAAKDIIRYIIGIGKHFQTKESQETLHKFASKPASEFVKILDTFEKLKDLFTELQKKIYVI
In words: X-ray analysis of the complex of LFA-1 I-domain with mevinolin. Type of experiment: binding. On the procedure:
The complex, LFA-1 I-domain/mevinolin, is prepared by adding mevinolin (100 mM solution in DMSO) to the protein solution (12.7 mg/ml, 100 mM MgSO4), followed by crystallization. The structure is solved by molecular replacement (using the coordinates of apo LFA-1 I domain, A. Qu & D. Leahy, above) and has been refined to a R factor of 19.4% (Rfree=25.9%) using X-ray amplitudes in the resolution range 8 Å-2.6 Å. The final model contains 2×182 amino acids (amino acid residues 128 to 309 of the α-chain of LFA-1 which corresponds to the I-domain), 2 mevinolin molecules and a total of 86 water molecules.

Setting [4] is: Jurkat cells, adhesion to ICAM-1, read-out: IC50 in the Jurkat Cell Assay.

Data on 4 compounds can be found in patent US6630492B1, “Lymphocyte function antigen-1 antagonists” (Novartis AG, priority 1997, dated 2003).

Structures are written as SMILES. Where two headings read alike, the source gives them in different places.

T1 sequence (P20701 26-1170): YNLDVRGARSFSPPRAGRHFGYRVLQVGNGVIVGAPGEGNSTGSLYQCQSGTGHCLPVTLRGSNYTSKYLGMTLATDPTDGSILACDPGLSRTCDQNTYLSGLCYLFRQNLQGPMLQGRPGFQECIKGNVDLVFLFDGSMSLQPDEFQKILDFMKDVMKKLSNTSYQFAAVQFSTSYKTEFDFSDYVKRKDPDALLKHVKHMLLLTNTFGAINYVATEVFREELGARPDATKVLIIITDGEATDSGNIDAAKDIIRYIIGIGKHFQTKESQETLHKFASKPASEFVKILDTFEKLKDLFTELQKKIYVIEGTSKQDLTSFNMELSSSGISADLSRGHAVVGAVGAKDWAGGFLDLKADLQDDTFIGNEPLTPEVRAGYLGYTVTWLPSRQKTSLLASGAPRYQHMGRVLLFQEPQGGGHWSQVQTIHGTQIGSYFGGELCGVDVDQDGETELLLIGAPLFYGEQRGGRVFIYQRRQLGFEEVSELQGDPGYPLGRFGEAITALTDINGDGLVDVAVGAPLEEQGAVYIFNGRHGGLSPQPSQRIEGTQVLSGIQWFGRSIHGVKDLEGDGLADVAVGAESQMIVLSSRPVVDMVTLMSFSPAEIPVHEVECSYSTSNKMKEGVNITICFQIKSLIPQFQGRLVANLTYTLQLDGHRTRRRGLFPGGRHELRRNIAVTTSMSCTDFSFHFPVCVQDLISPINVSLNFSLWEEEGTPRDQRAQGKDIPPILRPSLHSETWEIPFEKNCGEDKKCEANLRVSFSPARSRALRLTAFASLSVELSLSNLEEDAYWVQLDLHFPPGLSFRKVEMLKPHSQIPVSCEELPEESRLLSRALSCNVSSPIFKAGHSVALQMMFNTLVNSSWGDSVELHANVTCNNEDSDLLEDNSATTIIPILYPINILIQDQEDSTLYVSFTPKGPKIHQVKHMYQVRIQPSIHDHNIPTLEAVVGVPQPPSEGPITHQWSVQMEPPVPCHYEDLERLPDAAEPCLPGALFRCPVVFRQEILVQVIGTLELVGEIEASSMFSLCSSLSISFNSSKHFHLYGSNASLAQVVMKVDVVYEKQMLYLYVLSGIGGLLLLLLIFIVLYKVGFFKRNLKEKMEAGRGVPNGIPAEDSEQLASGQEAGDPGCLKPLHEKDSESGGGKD
T1 sequence (P05107 23-769 partner): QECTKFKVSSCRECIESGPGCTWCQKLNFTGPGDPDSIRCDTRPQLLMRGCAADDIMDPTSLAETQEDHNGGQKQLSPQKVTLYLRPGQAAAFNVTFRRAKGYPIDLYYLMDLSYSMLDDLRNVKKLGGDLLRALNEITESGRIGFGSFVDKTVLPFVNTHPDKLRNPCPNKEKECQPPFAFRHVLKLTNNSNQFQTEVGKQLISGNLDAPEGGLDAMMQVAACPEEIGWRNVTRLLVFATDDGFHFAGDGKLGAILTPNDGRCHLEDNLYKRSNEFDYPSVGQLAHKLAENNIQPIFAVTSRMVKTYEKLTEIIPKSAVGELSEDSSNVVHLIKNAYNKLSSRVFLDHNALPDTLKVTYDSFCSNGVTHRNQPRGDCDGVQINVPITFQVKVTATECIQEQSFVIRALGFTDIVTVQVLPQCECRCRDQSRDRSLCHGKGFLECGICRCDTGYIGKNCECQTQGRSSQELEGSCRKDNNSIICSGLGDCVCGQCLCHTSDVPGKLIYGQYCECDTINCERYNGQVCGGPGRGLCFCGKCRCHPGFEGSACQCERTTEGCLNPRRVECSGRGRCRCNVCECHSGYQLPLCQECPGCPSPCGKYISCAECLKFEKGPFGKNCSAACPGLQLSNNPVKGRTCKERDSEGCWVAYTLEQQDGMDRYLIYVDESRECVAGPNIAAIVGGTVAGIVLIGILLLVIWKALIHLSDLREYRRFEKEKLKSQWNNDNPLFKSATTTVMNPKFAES

In the case of `CCC(C)C(=O)OC1CC(C)C=C2C=CC(C)C(CCC(O)CC(CC(=O)NCCO)NCCO)C21` (stereo not shown) [Example 6, 2-Methyl-butyric Acid 8-[3-Hydroxy-5-(2-hydroxy-ethylamino)-6-(2-hydroxy-ethylcarbamoyl)-hexyl]-3,7-dimethyl-1,2,3,7,8,8a-hexahydro-naphthalen-1-yl Ester], in experiment [1] (setting [4]), the IC50 – broadly, the concentration that gives 50% inhibition – came to 4000 nM. In addition, the “inhibition of neutrophil migration” value in experiment [2] (1 mg/kg) is given as “fully inhibit”. Take `CC[C@H](C)C(=O)O[C@H]1C[C@@H](C)C=C2C=C[C@H](C)[C@H](CCC(O)CC(O)CC(=O)NCc3ccccc3OC)[C@H]21` (stereo partly shown) [Example 15]: the concentration for half-maximal inhibition (IC50) in experiment [1] (setting [4]) was found to be 2200 nM. On to `CC[C@H](C)C(=O)O[C@H]1C[C@@H](C)C=C2C=C[C@H](C)[C@H](CCC(O)CC(O)CC(=O)N3CCC4(CC3)OCCO4)[C@H]21` (stereo partly shown) [Example 33], for which, in experiment [1], the IC50 was determined as 1200 nM. The “inhibition of neutrophil migration” value in experiment [2] (0.1 mg/kg) is recorded as “fully inhibit”. `CC[C@H](C)C(=O)O[C@H]1C[C@@H](C)C=C2C=C[C@H](C)[C@H](CC[C@@H]3C[C@@H](O)CC(=O)O3)[C@H]21` [mevinolin, Mevinolin]: in experiment [3] (X-ray analysis of the complex), the “binding to the MIDAS-site” value was “does not bind to the MIDAS-site”. In experiment [3] (between the C-terminal helix α7 and one side of the β-sheet), the “binding to the LFA-1 I-domain (south pole pocket)” value was “binds to the LFA-1 I-domain”.
